According to the supplement of paper PMC11451515:

Tests used:
Test in all cases: AUC of viability dose-response curve (% viability x log10 dose units); higher = less sensitive
Conditions in all cases: 48 h
NOMO1 = tested on: NOMO1
Procedure, shortened: (§1)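 Library compounds in DMSO were applied for 48 h at 37°C at 11 threefold doses (47 μM to 0.79 nM) to medium-adapted leukemia cells in 1536-well plates holding 500 or 1000 cells/well. Luminescence from CellTiter-Glo One was normalised plate by plate against DMSO and cell-free wells. Area under the curve came from trapezoidal integration of a log-logistic fit, after scaling curves that rose above full viability and discarding those that failed quality control. The fit had four parameters and used log10 doses.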

P12-Ichikawa = tested on: P12-Ichikawa
Procedure, shortened: as §1

SEM cells = tested on: SEM cells
Procedure, shortened: as §1

[1] = RPMI 5 mM glucose + 10% dialyzed FBS

SMILES | AUC of viability dose-response curve (NOMO1; HPLM + 10% dialyzed FBS) | AUC of viability dose-response curve (NOMO1; RPMI 5 mM glucose + 10% FBS) | AUC of viability dose-response curve (NOMO1; [1]) | AUC of viability dose-response curve (P12-Ichikawa; HPLM + 10% dialyzed FBS) | AUC of viability dose-response curve (P12-Ichikawa; RPMI 5 mM glucose + 10% FBS) | AUC of viability dose-response curve (P12-Ichikawa; [1]) | AUC of viability dose-response curve (SEM cells; HPLM + 10% dialyzed FBS) | AUC of viability dose-response curve (SEM cells; RPMI 5 mM glucose + 10% FBS) | AUC of viability dose-response curve (SEM cells; [1])
[O-]C(=O)C/1=N/C(=O)NC(=O)N1 | 444 | 434 | 408 | 441 | 427 | 420 | 423 | 412 | 438
CC[N+](CC)(CC)CCOc1cccc(OCC[N+](CC)(CC)CC)c1OCC[N+](CC)(CC)CC | 400 | 439 | 445 | 451 | 455 | 456 | 423 | 463 | 477
Cc1cc(O)c2c(c1)C(=O)c1cccc(O)c1C2=O | 460 | 475 | 460 | 465 | 472 | 466 | 445 | 439 | 449
O=C(NCCCCN1CCOCC1)c1cc2ccccc2o1 | 459 | 462 | 451 | 467 | 440 | 448 | 441 | 440 | 457
C=C1C(=O)OC(CCCCCCCC)C1C(=O)O (stereo not drawn) | 474 | 462 | 464 | 468 | 467 | 468 | 461 | 457 | 468
OC1=CC=C(C=C1)\C2=C\OC3=C(C(=CC(=C3)O)O)C2=O | 459 | 455 | 473 | 466 | 471 | 468 | 452 | 395 | 433
CC(=O)N[C@@H]1[C@@H](NC(N)=N)\C=C(/O[C@H]1[C@H](O)[C@H](O)CO)C(O)=O | 464 | 463 | 443 | 461 | 466 | 471 | 457 | 421 | 419
COc1cc([C@@H](CC(=O)O)c2ccc(C)c(CN3C[C@@H](C)Oc4ccccc4[S+]3(=O)[O-])c2)cc2nnn(C)c12 | 403 | 418 | 431 | 407 | 446 | 452 | 452 | 350 | 367
N[S+](=O)([O-])c1cc2c(cc1Cl)NC(C(Cl)Cl)N[S+]2(=O)[O-] (stereo not drawn) | 450 | 453 | 442 | 456 | 459 | 467 | 431 | 450 | 447
CC1=C(/C=C/C(C)=C/C=C/C(C)=C\C(=O)O)C(C)(C)CCC1 | 438 | 408 | 420 | 445 | 400 | 415 | 405 | 450 | 379
COc1cc(CCc2cc(NC(=O)c3ccc(N4C[C@@H](C)N[C@@H](C)C4)cc3)n[nH]2)cc(OC)c1 | 442 | 466 | 455 | 448 | 435 | 414 | 333 | 319 | 332
O=C(CCCCCCC(=O)Nc1ccc([C@H]2O[C@@H](CSc3nc(-c4ccccc4)c(-c4ccccc4)o3)C[C@@H](c3ccc(CO)cc3)O2)cc1)NO | 405 | 406 | 403 | 378 | 376 | 362 | 398 | 397 | 391
COc1ccc(OC)c(-c2nnc3ccc(-c4ccc(OC)c(O[C@@H]5CCOC5)c4)nn23)c1 | 463 | 477 | 469 | 473 | 458 | 466 | 477 | 470 | 473
N#Cc1ccc(Oc2ccc3c(c2)COB3O)cc1 | 413 | 463 | 466 | 425 | 463 | 460 | 458 | 458 | 461
OC[C@H]1O[C@H](C[C@@H]1O)N2\C=C(F)/C(=O)NC2=O | 250 | 347 | 214 | 244 | 298 | 259 | 243 | 352 | 198
O=C(CS(=O)Cc1ccco1)NC/C=C\COc1cc(CN2CCCCC2)ccn1 (stereo not drawn) | 464 | 440 | 474 | 459 | 463 | 450 | 455 | 452 | 446
Cc1c(-c2cccc3c(CCCOc4cccc5ccccc45)c(C(=O)O)n(Cc4cccnc4)c23)c(COc2ccc(N3CCN([S+](=O)([O-])N(C)C)CC3)cc2)nn1C | 407 | 416 | 423 | 427 | 421 | 418 | 415 | 456 | 423
C[C@@H]1CN(Cc2ccc(F)cc2)[C@@H](C)CN1C(=O)c1cc2c(C(=O)C(=O)N(C)C)cn(C)c2cc1Cl | 467 | 474 | 475 | 471 | 472 | 471 | 462 | 413 | 449
C[C@H]1C[C@H]2[C@@H]3CC[C@](O)(C(=O)CO)[C@@]3(C)C[C@H](O)[C@@H]2[C@@]\4(C)/C=C\C(=O)\C=C14 | 456 | 444 | 451 | 378 | 341 | 314 | 315 | 357 | 352
C[C@@H](NCCCc1cccc(C(F)(F)F)c1)c1cccc2ccccc12 | 455 | 418 | 447 | 455 | 455 | 439 | 467 | 458 | 445
CC[S+](=O)([O-])Nc1ccc2c(c1)/C(=C(/Nc1ccc(CN3CCCCC3)cc1)c1ccccc1)C(=O)N2 | 335 | 314 | 323 | 276 | 274 | 297 | 223 | 232 | 230
CC\12CCC(=O)\C=C1CCC3C2CCC4(C)C3CCC4(O)C#C (stereo not drawn) | 456 | 430 | 428 | 442 | 452 | 421 | 452 | 461 | 458
CC(C)=CCC/C(C)=C/CC/C(C)=C/CC/C(C)=C/CC/C(C)=C/CC/C(C)=C/CC/C(C)=C/CC/C(C)=C/CC/C(C)=C/CO | 450 | 462 | 455 | 467 | 457 | 465 | 475 | 436 | 431
Cc1ccc([N+](=O)[O-])cc1[S+](=O)([O-])N(C)/N=C/c1cnc2ccc(Br)cn12 | 196 | 223 | 217 | 250 | 240 | 244 | 203 | 207 | 222
N[C@H]2CN(CC12CC1)c3c(F)cc4c(c3Cl)[N@@](C=C(C4=O)C(=O)O)C5C[C@H]5F (stereo partly drawn) | 420 | 387 | 413 | 439 | 417 | 395 | 412 | 431 | 398
CC1(CN2CCC(n3c(=O)[nH]c4ccccc43)CC2)OCc2ccccc2-n2cccc21 (stereo not drawn) | 397 | 452 | 438 | 470 | 469 | 458 | 455 | 449 | 470
CC(C)(S)[C@@H](N)C(=O)O | 469 | 472 | 465 | 471 | 468 | 476 | 439 | 431 | 455
